The results in this text go back to ChEMBL document CHEMBL4038279, “Design and characterization of opioid ligands based on cycle-in-macrocycle scaffold” (Bioorg Med Chem, 2017).

Assay [1] addresses Mu-type opioid receptor (Homo sapiens, UniProt P35372). The assay is described as follows: Displacement of [3H]DAMGO from recombinant human mu opioid receptor expressed in CHO cell membranes after 120 mins by liquid scintillation counter analysis. A general note: Displacement assays read how much labelled ligand stays bound in the presence of the test substance.
For assay [2], the target named is Kappa-type opioid receptor (Homo sapiens, UniProt P41145). The assay is described as follows: Displacement of [3H]U-69593 from recombinant human kappa opioid receptor expressed in CHO cell membranes after 120 mins by liquid scintillation counter analysis.
For assay [3], the target named is Delta-type opioid receptor (Homo sapiens, UniProt P41143). The assay is described as follows: Displacement of [3H]deltorphin-2 from recombinant human delta opioid receptor expressed in CHO cell membranes after 120 mins by liquid scintillation counter analysis.

In general, Ki refers to a measure of affinity in units of concentration, obtained from inhibition or displacement.

Where a SMILES comes first, the peptide text is derived from it. Bridges are numbered along the chain shown (N, C = ends). [ ]: non-standard residue; d: D form.

Sequence of Mu-type opioid receptor (P35372 whole entry): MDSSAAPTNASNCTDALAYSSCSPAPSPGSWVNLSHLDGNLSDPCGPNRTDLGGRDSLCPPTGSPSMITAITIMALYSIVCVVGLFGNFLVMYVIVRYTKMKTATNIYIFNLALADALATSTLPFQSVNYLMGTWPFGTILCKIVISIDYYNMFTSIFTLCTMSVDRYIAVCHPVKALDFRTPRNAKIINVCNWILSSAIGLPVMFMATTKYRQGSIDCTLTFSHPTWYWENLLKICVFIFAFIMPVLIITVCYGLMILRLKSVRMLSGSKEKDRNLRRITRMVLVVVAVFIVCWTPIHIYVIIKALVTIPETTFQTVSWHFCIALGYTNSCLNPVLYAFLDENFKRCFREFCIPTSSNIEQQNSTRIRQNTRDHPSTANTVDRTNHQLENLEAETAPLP
Sequence of Kappa-type opioid receptor (P41145 whole entry): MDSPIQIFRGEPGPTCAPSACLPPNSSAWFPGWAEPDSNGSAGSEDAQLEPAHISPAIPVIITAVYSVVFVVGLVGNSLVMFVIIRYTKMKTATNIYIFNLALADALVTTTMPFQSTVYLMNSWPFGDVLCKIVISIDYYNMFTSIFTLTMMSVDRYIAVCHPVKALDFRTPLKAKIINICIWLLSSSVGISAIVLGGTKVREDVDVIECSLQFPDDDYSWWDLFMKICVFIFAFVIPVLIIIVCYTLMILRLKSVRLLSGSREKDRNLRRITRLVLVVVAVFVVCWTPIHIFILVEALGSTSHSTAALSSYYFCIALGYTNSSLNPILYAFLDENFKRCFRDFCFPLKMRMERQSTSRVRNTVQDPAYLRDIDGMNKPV
Sequence of Delta-type opioid receptor (P41143 whole entry): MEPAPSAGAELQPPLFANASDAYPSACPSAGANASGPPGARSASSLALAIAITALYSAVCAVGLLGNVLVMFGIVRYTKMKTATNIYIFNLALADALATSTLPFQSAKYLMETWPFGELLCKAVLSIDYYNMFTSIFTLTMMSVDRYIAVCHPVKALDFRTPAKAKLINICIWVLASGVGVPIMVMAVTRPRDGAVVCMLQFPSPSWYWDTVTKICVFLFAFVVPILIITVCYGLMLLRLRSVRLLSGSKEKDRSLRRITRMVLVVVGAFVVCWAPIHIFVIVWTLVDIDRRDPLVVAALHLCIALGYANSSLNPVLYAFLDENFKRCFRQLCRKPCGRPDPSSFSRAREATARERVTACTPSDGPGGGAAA

With `NC(=O)[C@@H]1CC(=O)NCCCC[C@@H](NC(=O)[C@@H](N)Cc2ccc(O)cc2)C(=O)N[C@@H](Cc2ccccc2)C(=O)N2CCCC[C@H]2C(=O)N1`, the Ki in assay [1] was determined as 3.16 nM; in assay [2], 6720 nM; in assay [3] it was 49.6 nM.

As to `NC(=O)[C@@H]1CC(=O)NCCCC[C@@H](NC(=O)[C@@H](N)Cc2ccc(O)cc2)C(=O)N[C@@H](Cc2ccccc2)C(=O)N2CCC[C@H]2C(=O)N1`, the results for the Ki in assay [1], in assay [2] and in assay [3] were 0.46 nM, 884 nM and 85.5 nM, respectively.

Turning to `NC(=O)[C@@H]1CC(=O)NCCCC[C@@H](NC(=O)[C@@H](N)Cc2ccc(O)cc2)C(=O)N[C@@H](Cc2ccccc2)C(=O)N2CCC(CC2)C(=O)N1`, the inhibition constant Ki came out at 1.15 nM in assay [1], 5460 nM in assay [2] and 76.7 nM in assay [3].

Take `NC(=O)[C@@H]1CC(=O)NCCCC[C@@H](NC(=O)[C@@H](N)Cc2ccc(O)cc2)C(=O)N[C@@H](Cc2ccccc2)C(=O)N2CCC[C@H](C2)C(=O)N1`: the results for the inhibition constant Ki in assay [1], in assay [2] and in assay [3] were 0.9 nM, 4620 nM and 67 nM, respectively.

As to `NC(=O)[C@@H]1CC(=O)NCCCC[C@@H](NC(=O)[C@@H](N)Cc2ccc(O)cc2)C(=O)N[C@@H](Cc2ccccc2)C(=O)N[C@@H](Cc2ccccc2)C(=O)N1` (H-Y[dK]FFD-NH2; lactam 2-5), the Ki in assay [1] was 0.56 nM; in assay [2] it was 2.36 nM; in assay [3], 279 nM.
